In assay [1] the target is T1, K-Ras G12D (Homo sapiens, UniProt P01116, G12D).
T1 construct: made in house; host or cells: E. coli BL21 (DE3)
The experiment in a line: HTRF resonance energy transfer assay, K-Ras G12D / SOS1 interaction. The note with it: HTRF assay of Example 5; read-out: IC50 against K-Ras G12D. Format: biochemical. Summed up:
(§1)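 Buffer about 5 mM HEPES pH 7.4 with ~150 mM NaCl, ~1 mM DTT, 0.05% BSA, 0.0025% (v/v) Igepal. Protein constructs used at molarity matching the IC50 range studied (e.g. ~500 nM). FRET between tagged K-Ras and hSOS1 measured after short incubation.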

Assay [2] concerns the target T2, K-Ras G12S (Homo sapiens, UniProt P01116, G12S).
T2 construct: made in house; host or cells: E. coli BL21 (DE3)
The experiment in a line: HTRF resonance energy transfer assay, K-Ras G12S / SOS1 interaction. Format: biochemical. The note with it: HTRF assay of Example 5; read-out: IC50 against K-Ras G12S. In outline: as §1

Assay [3] has as its target T3, K-Ras G12V (Homo sapiens, UniProt P01116, G12V).
T3 construct: made in house; host or cells: E. coli BL21 (DE3)
Kind of assay: HTRF resonance energy transfer assay, K-Ras G12V / SOS1 interaction. It is filed as biochemical. The note with it: HTRF assay of Example 5; read-out: IC50 against K-Ras G12V. In outline: as §1

Assay [4] deals with T4, K-Ras WT (Homo sapiens, UniProt P01116).
T4 construct: made in house; host or cells: E. coli BL21 (DE3)
T4 sequence (P01116 1-188 isoform P01116-2): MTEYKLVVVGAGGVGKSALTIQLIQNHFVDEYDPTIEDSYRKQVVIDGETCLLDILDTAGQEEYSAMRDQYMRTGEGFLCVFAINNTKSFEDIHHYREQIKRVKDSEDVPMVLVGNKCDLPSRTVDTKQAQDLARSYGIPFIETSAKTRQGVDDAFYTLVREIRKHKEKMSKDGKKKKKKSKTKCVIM
Kind of assay: HTRF resonance energy transfer assay, K-Ras WT / SOS1 interaction. It is filed as biochemical. The note with it: HTRF assay of Example 5; read-out: IC50 against K-Ras WT. In outline:
as §1

For assay [5], the system named is A549 cells. The experiment in a line: Ras cellular assay, growth of cells with K-Ras G12S mutation (CellTiter-Glo). Format: cell-based. The note with it: Homo sapiens, cell growth, Example 9, G12S mutation, read-out: IC50 against A549 cells. The procedure:
For example, this assay can be also used to assess a selective growth inhibition of a mutant Ras protein relative to a wildtype, or relative to a different mutant Ras protein.
A549 (ATCC CCL-185) and LS123 (ATCC CCL-255) cell lines comprise a G12S mutation and can be used to assess Ras cellular signaling in vitro, e.g., in response to the compounds herein. A549 culture medium is prepared with RPMI-1640 and 10% heat-inactivated FBS. LS123 culture medium is prepared with RPMI-1640 and 10% heat-inactivated FBS. A CellTiter-Glo (CTG) luminescent based assay (Promega) is used to assess growth of the cells, as a measurement of the ability of the compounds herein to inhibit Ras signaling in the cells. The cells (e.g., 800 per well) are seeded in their respective culture medium in standard tissue culture-treated 384-well format plates (Falcon #08-772-116) or ultra-low attachment surface 384-well format plates (S-Bio #MS-9384WZ). The day after plating, cells are treated with a dilution series (e.g., a 10 point 3-fold dilution series) of the compounds herein (e.g., approximately 40 μL final volume per well). Cell viability can be monitored (e.g., approximately 6 days later) according to the manufacturer's recommended instructions, where the CellTiter-Glo reagent is added (e.g., approximately 10 μL), vigorously mixed, covered, and placed on a plate shaker (e.g., approximately for 20 min) to ensure sufficient cell lysis prior to assessment of luminescent signal. The IC50 values are determined using the four parameter fit. The resulting IC50 value is a measurement of the ability of the compounds herein to reduce cell growth of Ras-driven cells (e.g., tumor cell lines) in vitro and/or in vivo.

Assay [6] has as its system SW620 cells. The experiment in a line: Ras cellular assay, growth of cells with K-Ras G12V mutation (CellTiter-Glo). The note with it: Homo sapiens, SW-620; cell growth, Example 9, G12V mutation; read-out: IC50 against SW620 cells. Format: cell-based. In outline: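 IC50 values came from a four-parameter fit of CellTiter-Glo viability, read roughly 6 days after dosing with e.g. a 10-point threefold dilution series. G12V-mutant SW620 cells (e.g. 800 per well) had been plated the previous day in RPMI-1640/10% heat-inactivated FBS, on tissue culture-treated or ultra-low attachment plates.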

We go through ten compounds from patent publication US12209102B2, “Heterocyclic compounds and uses thereof” (Kumquat Biosciences Inc., priority 2022, dated 2025).

The structures appear in SMILES notation. Some results are limits rather than exact numbers.

T2 sequence (P01116 1-188 isoform P01116-2 G12S): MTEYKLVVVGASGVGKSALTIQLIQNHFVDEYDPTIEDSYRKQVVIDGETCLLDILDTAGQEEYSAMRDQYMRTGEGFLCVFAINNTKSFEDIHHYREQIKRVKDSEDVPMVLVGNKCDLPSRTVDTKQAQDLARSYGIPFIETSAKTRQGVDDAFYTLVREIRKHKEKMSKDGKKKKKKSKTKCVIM
T1 sequence (P01116 1-188 isoform P01116-2 G12D): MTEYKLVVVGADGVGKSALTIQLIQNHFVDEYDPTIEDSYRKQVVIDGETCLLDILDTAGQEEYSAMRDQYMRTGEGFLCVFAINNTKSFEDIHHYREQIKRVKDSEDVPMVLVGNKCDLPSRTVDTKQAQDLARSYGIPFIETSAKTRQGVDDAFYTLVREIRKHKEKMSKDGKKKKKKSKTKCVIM
T3 sequence (P01116 1-188 isoform P01116-2 G12V): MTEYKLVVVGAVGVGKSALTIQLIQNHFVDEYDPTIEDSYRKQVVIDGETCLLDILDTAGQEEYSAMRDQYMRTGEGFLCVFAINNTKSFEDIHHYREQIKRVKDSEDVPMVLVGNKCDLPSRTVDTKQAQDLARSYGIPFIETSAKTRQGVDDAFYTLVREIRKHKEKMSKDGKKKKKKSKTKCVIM

On to `N#Cc1c(N)sc2c(F)ccc(-c3c(Cl)c4c5c(nc(OC[C@@]67CCCN6C[C@H](F)C7)nc5c3F)N(C3CCCOCC3)CCO4)c12` (stereo partly drawn) [Compound 638, 2-amino-4-(8-chloro-10-fluoro-2-(((2R,7aS)-2-fluorotetrahydro-1H-pyrrolizin-7a(5H)-yl)methoxy)-4-(oxepan-4-yl)-5,6-dihydro-4H-[1,4]oxazepino[5,6,7-de]quinazolin-9-yl)-7-fluorobenzo[b]thiophene-3-carbonitrile], for which the half-inhibitory concentration (IC50) was less than 100 nM in assay [1]; less than 100 nM in assay [2]; less than 100 nM in assay [3]; less than 100 nM in assay [4]; less than 5000 nM in assay [5]; less than 5000 nM in assay [6].

Consider `N#Cc1c(N)sc2c(F)ccc(-c3c(Cl)c4c5c(nc(OC[C@@]67CCCN6C[C@H](F)C7)nc5c3F)N(C3CCCC3)CCO4)c12` [Compound 639, 2-amino-4-(8-chloro-4-cyclopentyl-10-fluoro-2-(((2R,7aS)-2-fluorotetrahydro-1H-pyrrolizin-7a(5H)-yl)methoxy)-5,6-dihydro-4H-[1,4]oxazepino[5,6,7-de]quinazolin-9-yl)-7-fluorobenzo[b]thiophene-3-carbonitrile], for which the IC50 was less than 100 nM in assay [1]; less than 100 nM in assay [2]; less than 100 nM in assay [3]; less than 100 nM in assay [4]; less than 5000 nM in assay [5]; less than 5000 nM in assay [6].

Consider `N#Cc1c(N)sc2c(F)ccc(-c3c(Cl)c4c5c(nc(OC[C@@]67CCCN6C[C@H](F)C7)nc5c3F)N(C3CCCN(C(=O)[C@@H]5N[C@H]5C5CC5)C3)CCO4)c12` (stereo partly drawn) [Compound 643, 2-amino-4-(8-chloro-4-(1-((2R,3S)-3-cyclopropylaziridine-2-carbonyl)piperidin-3-yl)-10-fluoro-2-(((2R,7aS)-2-fluorotetrahydro-1H-pyrrolizin-7a(5H)-yl)methoxy)-5,6-dihydro-4H-[1,4]oxazepino[5,6,7-de]quinazolin-9-yl)-7-fluorobenzo[b]thiophene-3-carbonitrile], for which the IC50 is less than 100 nM in assay [1]; less than 100 nM in assay [2]; less than 100 nM in assay [3]; less than 100 nM in assay [4]; less than 5000 nM in assay [5]; less than 5000 nM in assay [6].

In the case of `CC(O)C1C(C)Oc2c(Cl)c(-c3ccc(F)c4sc(N)c(C#N)c34)c(F)c3nc(OC[C@@]45CCCN4C[C@H](F)C5)nc(c23)N1CC(F)F` (stereo partly drawn) [Compound 646, 2-amino-4-(8-chloro-4-(2,2-difluoroethyl)-10-fluoro-2-(((2R,7aS)-2-fluorotetrahydro-1H-pyrrolizin-7a(5H)-yl)methoxy)-5-(1-hydroxyethyl)-6-methyl-5,6-dihydro-4H-[1,4]oxazepino[5,6,7-de]quinazolin-9-yl)-7-fluorobenzo[b]thiophene-3-carbonitrile], the IC50 was less than 100 nM in assay [1]; less than 100 nM in assay [2]; less than 100 nM in assay [3]; less than 100 nM in assay [4]; less than 5000 nM in assay [5]; less than 5000 nM in assay [6].

On to `CC1Oc2c(Cl)c(-c3ccc(F)c4sc(N)c(C#N)c34)c(F)c3nc(OC[C@@]45CCCN4C[C@H](F)C5)nc(c23)N(CC(F)F)C1C(C)(C)O` (stereo partly drawn) [Compound 655, 2-amino-4-(8-chloro-4-(2,2-difluoroethyl)-10-fluoro-2-(((2R,7aS)-2-fluorotetrahydro-1H-pyrrolizin-7a(5H)-yl)methoxy)-5-(2-hydroxypropan-2-yl)-6-methyl-5,6-dihydro-4H-[1,4]oxazepino[5,6,7-de]quinazolin-9-yl)-7-fluorobenzo[b]thiophene-3-carbonitrile], for which the concentration for half-maximal inhibition (IC50) is less than 100 nM in assay [1]; less than 100 nM in assay [2]; less than 100 nM in assay [3]; less than 100 nM in assay [4]; less than 5000 nM in assay [5]; less than 5000 nM in assay [6].

For `COC1CCCC1N1CCOc2c(Cl)c(-c3ccc(F)c4sc(N)c(C#N)c34)c(F)c3nc(OC[C@@]45CCCN4C[C@H](F)C5)nc1c23` (stereo partly drawn) [Compound 657, 2-amino-4-(8-chloro-10-fluoro-2-(((2R,7aS)-2-fluorotetrahydro-1H-pyrrolizin-7a(5H)-yl)methoxy)-4-(2-methoxycyclopentyl)-5,6-dihydro-4H-[1,4]oxazepino[5,6,7-de]quinazolin-9-yl)-7-fluorobenzo[b]thiophene-3-carbonitrile], the IC50 in assay [1] was less than 100 nM; in assay [2] it was less than 100 nM; in assay [3], less than 100 nM; in assay [4], less than 100 nM; in assay [5], less than 5000 nM; in assay [6], less than 5000 nM.

On to `CC(O)CC1COc2c(Cl)c(-c3ccc(F)c4sc(N)c(C#N)c34)c(F)c3nc(OC[C@@]45CCCN4C[C@H](F)C5)nc(c23)N1CC(F)F` (stereo partly drawn) [Compound 659, 2-amino-4-(8-chloro-4-(2,2-difluoroethyl)-10-fluoro-2-(((2R,7aS)-2-fluorotetrahydro-1H-pyrrolizin-7a(5H)-yl)methoxy)-5-(2-hydroxypropyl)-5,6-dihydro-4H-[1,4]oxazepino[5,6,7-de]quinazolin-9-yl)-7-fluorobenzo[b]thiophene-3-carbonitrile], for which the IC50 in assay [1] was less than 100 nM; in assay [2] it was less than 100 nM; in assay [3] it was less than 100 nM; in assay [4], less than 100 nM; in assay [5], less than 5000 nM; in assay [6] it was less than 5000 nM.

`COC1CC(N2CCOc3c(Cl)c(-c4ccc(F)c5sc(N)c(C#N)c45)c(F)c4nc(OC[C@@]56CCCN5C[C@H](F)C6)nc2c34)C1` (stereo partly drawn) [Compound 660, 2-amino-4-(8-chloro-10-fluoro-2-(((2R,7aS)-2-fluorotetrahydro-1H-pyrrolizin-7a(5H)-yl)methoxy)-4-(3-methoxycyclobutyl)-5,6-dihydro-4H-[1,4]oxazepino[5,6,7-de]quinazolin-9-yl)-7-fluorobenzo[b]thiophene-3-carbonitrile]: the IC50 in assay [1] is less than 100 nM; in assay [2], less than 100 nM; in assay [3], less than 100 nM; in assay [4], less than 100 nM; in assay [5], less than 5000 nM; in assay [6] it was less than 5000 nM.

As to `N#Cc1c(N)sc2c(F)ccc(-c3c(Cl)c4c5c(nc(OC[C@@]67CCCN6C[C@H](F)C7)nc5c3F)N(C3CCC(NC(=O)C(F)F)C3)CCO4)c12` (stereo partly drawn) [Compound 673, N-(3-(9-(2-amino-3-cyano-7-fluorobenzo[b]thiophen-4-yl)-8-chloro-10-fluoro-2-(((2R,7aS)-2-fluorotetrahydro-1H-pyrrolizin-7a(5H)-yl)methoxy)-5,6-dihydro-4H-[1,4]oxazepino[5,6,7-de]quinazolin-4-yl)cyclopentyl)-2,2-difluoroacetamide], the IC50 is less than 100 nM in assay [1]; less than 100 nM in assay [2]; less than 100 nM in assay [3]; less than 100 nM in assay [4]; less than 5000 nM in assay [5]; less than 5000 nM in assay [6].

With `N#Cc1c(N)sc2c(F)ccc(-c3c(Cl)c4c5c(nc(OC[C@@]67CCCN6C[C@H](F)C7)nc5c3F)N(C3CCC(C#N)C3)CCO4)c12` (stereo partly drawn) [Compound 684, 2-amino-4-(8-chloro-4-(3-cyanocyclopentyl)-10-fluoro-2-(((2R,7aS)-2-fluorotetrahydro-1H-pyrrolizin-7a(5H)-yl)methoxy)-5,6-dihydro-4H-[1,4]oxazepino[5,6,7-de]quinazolin-9-yl)-7-fluorobenzo[b]thiophene-3-carbonitrile], the IC50 in assay [1] was less than 100 nM; in assay [2] it was less than 100 nM; in assay [3] it was less than 100 nM; in assay [4] it was less than 100 nM; in assay [5], less than 5000 nM; in assay [6] it was less than 5000 nM.
